This is an account of results in patent US6326139A (priority 1997, dated 2001).

Data set [1] has as its system myasthenia gravis patients. Particulars: in vivo; cited from earlier work.
For data set [2] the following is noted: in vivo; cited from earlier work.
Data set [3] deals with T1, normal BuChE (serum and recombinant) (Homo sapiens, UniProt P06276).
T1 construct: made in house; host or cells: Xenopus oocytes (recombinant) and normal human serum (native), reported together
Briefly: Inhibition by cocaine / α-solanine, normal enzymes. Type of data set: biochemical.

For data set [4], the target named is T2, Rec. BuChE G/G ("atypical") (Homo sapiens, UniProt P06276, D98G).
T2 construct: made in house; host or cells: Xenopus oocytes (microinjected in vitro transcribed mRNA)
T2 sequence (P06276 29-602 D98G): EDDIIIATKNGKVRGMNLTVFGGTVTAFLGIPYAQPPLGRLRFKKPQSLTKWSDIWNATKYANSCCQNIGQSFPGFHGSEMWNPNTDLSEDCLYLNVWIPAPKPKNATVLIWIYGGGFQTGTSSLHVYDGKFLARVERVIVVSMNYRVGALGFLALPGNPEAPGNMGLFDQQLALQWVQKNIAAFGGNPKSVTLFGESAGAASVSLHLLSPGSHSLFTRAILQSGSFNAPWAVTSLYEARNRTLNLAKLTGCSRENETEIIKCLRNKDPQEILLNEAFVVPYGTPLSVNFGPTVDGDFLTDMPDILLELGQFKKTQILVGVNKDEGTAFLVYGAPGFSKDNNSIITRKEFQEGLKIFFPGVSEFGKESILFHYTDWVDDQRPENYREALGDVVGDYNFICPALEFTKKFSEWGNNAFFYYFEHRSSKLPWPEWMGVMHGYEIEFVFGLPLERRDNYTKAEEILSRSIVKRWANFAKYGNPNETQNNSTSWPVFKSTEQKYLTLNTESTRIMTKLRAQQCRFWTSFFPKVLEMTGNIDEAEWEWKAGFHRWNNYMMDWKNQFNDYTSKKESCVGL
Kind of data set: Inhibition by cocaine / α-solanine, recombinant G/G. The data set is classed as biochemical.

The next data set concerns the target T3, Rec. BuChE D/D (normal) (Homo sapiens, UniProt P06276).
T3 construct: made in house; host or cells: Xenopus oocytes (microinjected in vitro transcribed mRNA)
Kind of data set: Inhibition by cocaine / α-solanine, recombinant D/D. Type of data set: biochemical.

Data set [5] concerns the target T4, Serum BuChE G/G ("atypical") (Homo sapiens, UniProt P06276, D98G).
T4 construct: applicants prepared serum from an individual who had experienced succinylcholine-induced apnea; from tissue; host or cells: human serum, homozygous carrier of the atypical allele
Kind of data set: Inhibition by cocaine / α-solanine, serum G/G. Type of data set: biochemical.

The next data set deals with T5, Rec. AChE (Homo sapiens, UniProt P22303).
T5 construct: made in house; host or cells: Xenopus oocytes (injected ACHE DNA, CMV promoter)
T5 sequence (P22303 32-614): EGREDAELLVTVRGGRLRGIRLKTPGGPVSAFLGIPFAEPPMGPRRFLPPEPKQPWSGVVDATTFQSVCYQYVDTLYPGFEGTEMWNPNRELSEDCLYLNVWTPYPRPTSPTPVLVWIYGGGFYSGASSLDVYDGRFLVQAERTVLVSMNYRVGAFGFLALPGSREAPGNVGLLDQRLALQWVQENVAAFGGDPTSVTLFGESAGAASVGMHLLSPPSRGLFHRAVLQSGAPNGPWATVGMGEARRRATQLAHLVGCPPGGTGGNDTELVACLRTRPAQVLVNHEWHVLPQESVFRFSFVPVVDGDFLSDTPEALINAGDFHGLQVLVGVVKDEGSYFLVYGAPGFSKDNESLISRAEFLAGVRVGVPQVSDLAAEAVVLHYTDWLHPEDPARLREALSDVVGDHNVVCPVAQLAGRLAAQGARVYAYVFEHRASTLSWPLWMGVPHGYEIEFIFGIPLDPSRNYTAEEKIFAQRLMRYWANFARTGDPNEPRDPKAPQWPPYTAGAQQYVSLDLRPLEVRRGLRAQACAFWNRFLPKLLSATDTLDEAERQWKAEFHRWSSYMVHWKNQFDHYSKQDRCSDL
Briefly: Inhibition by cocaine, recombinant AChE. Type of data set: biochemical.

A further data set concerns the target T6, Serum BuChE D/D (normal) (Homo sapiens, UniProt P06276).
T6 construct: with enzyme from normal serum; from tissue; host or cells: human serum, normal homozygote
Briefly: Inhibition by cocaine / α-solanine, serum D/D. Type of data set: biochemical.

The subject of another data set is BuChE F^329 C. Kind of data set: Reactivation by PAM of DFP-inhibited enzyme. Particulars: 1 mM PAM; pseudo-first order. The data set is classed as biochemical, human. As for the experimental part:
(§1) and 1 μM DFP. The pseudo-first order rate constant for reactivation, […]

The next data set relates to BuChE D^70 G + Y^114 H. Briefly: Reactivation by PAM of DFP-inhibited enzyme. The data set is classed as biochemical, human. Particulars: 1 mM PAM; pseudo-first order. As for the experimental part:
as §1

Another data set relates to BuChE L^286 Q. Kind of data set: Reactivation by PAM of DFP-inhibited enzyme. Type of data set: biochemical, human. Particulars: 1 mM PAM; pseudo-first order. As for the experimental part:
as §1

The subject of another data set is BuChE F^329 D. Briefly: Reactivation by PAM of DFP-inhibited enzyme. The data set is classed as biochemical, human. Particulars: 1 mM PAM; pseudo-first order. As for the experimental part: as §1
Another data set relates to BuChE F^329 R. Kind of data set: Reactivation by PAM of DFP-inhibited enzyme. Particulars: 1 mM PAM; pseudo-first order. The data set is classed as biochemical, human. As for the experimental part: as §1
The subject of another data set is BuChE D^70 G. Briefly: Reactivation by PAM of DFP-inhibited enzyme. The data set is classed as biochemical, human. As for the experimental part:
as §1

The next data set deals with BuChE L^286 D. Briefly: Reactivation by PAM of DFP-inhibited enzyme. Type of data set: biochemical, human. Particulars: 1 mM PAM; pseudo-first order. As for the experimental part: as §1
The next data set relates to BuChE L^286 R. Kind of data set: Reactivation by PAM of DFP-inhibited enzyme. Particulars: 1 mM PAM; pseudo-first order. The data set is classed as biochemical, human. As for the experimental part:
as §1

The next data set concerns BuChE D^70 G + S^425 P. Kind of data set: Reactivation by PAM of DFP-inhibited enzyme. Type of data set: biochemical, human. As to conditions: 1 mM PAM; pseudo-first order. As for the experimental part:
as §1

A further data set has as its system BuChE S^425 P. Kind of data set: Reactivation by PAM of DFP-inhibited enzyme. Type of data set: biochemical, human. As to conditions: 1 mM PAM; pseudo-first order. As for the experimental part:
as §1

A further data set deals with BuChE F^329 Q. Briefly: Reactivation by PAM of DFP-inhibited enzyme. As to conditions: 1 mM PAM; pseudo-first order. Type of data set: biochemical, human. As for the experimental part: as §1
The test system of data set [6] is BuChE D^70 G + Y^114 H + S^425 P. Briefly: Reactivation by PAM of DFP-inhibited enzyme. The data set is classed as biochemical, human. As for the experimental part:
as §1

For data set [7], the system named is Chimera of human AChE and BuChE. Briefly: Reactivation by PAM of DFP-inhibited enzyme. Type of data set: biochemical. As for the experimental part:
as §1

In another data set the target is T7, DIP-BuChE (Homo sapiens, UniProt P06276).
T7 construct: made in house; host or cells: Xenopus oocytes (microinjected in vitro transcribed mRNA)
T7 sequence (P06276 29-602): as the sequence (P06276 29-602 D98G) above, with G70D counted along it
Briefly: Reactivation by PAM of DFP-inhibited enzyme. Type of data set: biochemical. As for the experimental part: as §1

The next data set deals with BuChE L^286 K (Homo sapiens, UniProt P06276, L314K). Kind of data set: Reactivation by PAM of DFP-inhibited enzyme. The data set is classed as biochemical. As for the experimental part: as §1
Sequence of BuChE L^286 K (P06276 29-602 L314K limits assumed): as the sequence (P06276 29-602 D98G) above, with G70D, L286K counted along it
For the next data set, the target named is AChE (E6) (Homo sapiens, UniProt P22303). As for the experimental part:
(§2) Single-step enrichment for AChE or BuChE on immobilized antibody: Monoclonal mouse anti-human serum BuChE (53-4) or anti-human ACHE (101-1) antibodies (Liao et al., 1993), were adsorbed to microliter plates (Nunc, Roskilde, Denmark) at […] in 0.1 M carbonate buffer, pH 9.6, for at least four hours at room temperature. Plates were then washed three times in PBS-T buffer (144 mM NaCl, 20 mM Na phosphate, pH 7.4, 0.05% Tween-20). Free binding sites on the well surface of the microliter plate were blocked with PBS-T for one hour at 37° C. […] Microinjected oocyte homogenates containing the enzyme were then added at a dilution of 1:20 in PBS-T or at a concentration of 100 mIU/ml in PBS-T for at least 3 hours at room temperature with agitation. Plates were washed three times with PBS-T before use. Inactivation was performed at pH 7.4 in order to facilitate comparison with similar studies in the literature.
(§3) and 1 μM DFP. The pseudo-first order rate constant for reactivation,
(§4) ^a True first order rate constants for reactivation (kr) and […]

A further data set has as its target AChE (E5) (Homo sapiens, UniProt P22303). As for the experimental part:
as §2, §3, §4

Data set [8] has as its system D^70 G BuChE in tandem with one or two additional natural mutations. Briefly: Reactivation by 2-PAM of DFP-inactivated enzyme. The data set is classed as biochemical, human.
Method: Single-step enrichment for AChE or BuChE on immobilized antibody: Monoclonal mouse anti-human serum BuChE (53-4) or anti-human ACHE (101-1) antibodies (Liao et al., 1993), were adsorbed to microliter plates (Nunc, Roskilde, Denmark) at 0.5 pg/ml in 0.1 M carbonate buffer, pH 9.6, for at least four hours at room temperature. Plates were then washed three times in PBS-T buffer (144 mM NaCl, 20 mM Na phosphate, pH 7.4, 0.05% Tween-20). Free binding sites on the well surface of the microliter plate were blocked with PBS-T for one hour at 37° C. […] Microinjected oocyte homogenates containing the enzyme were then added at a dilution of 1:20 in PBS-T or at a concentration of 100 mIU/ml in PBS-T for at least 3 hours at room temperature with agitation. Plates were washed three times with PBS-T before use. Inactivation was performed at pH 7.4 in order to facilitate comparison with similar studies in the literature.
[9] abbreviates: true first order, 0.1 to 0.6 mM PAM.

Structures are written as SMILES.

Sequence of AChE (E6) (P22303 32-614): as the sequence (P22303 32-614) above
Sequence of AChE (E5) (P22303-4 with tags, fused parts or gaps limits assumed): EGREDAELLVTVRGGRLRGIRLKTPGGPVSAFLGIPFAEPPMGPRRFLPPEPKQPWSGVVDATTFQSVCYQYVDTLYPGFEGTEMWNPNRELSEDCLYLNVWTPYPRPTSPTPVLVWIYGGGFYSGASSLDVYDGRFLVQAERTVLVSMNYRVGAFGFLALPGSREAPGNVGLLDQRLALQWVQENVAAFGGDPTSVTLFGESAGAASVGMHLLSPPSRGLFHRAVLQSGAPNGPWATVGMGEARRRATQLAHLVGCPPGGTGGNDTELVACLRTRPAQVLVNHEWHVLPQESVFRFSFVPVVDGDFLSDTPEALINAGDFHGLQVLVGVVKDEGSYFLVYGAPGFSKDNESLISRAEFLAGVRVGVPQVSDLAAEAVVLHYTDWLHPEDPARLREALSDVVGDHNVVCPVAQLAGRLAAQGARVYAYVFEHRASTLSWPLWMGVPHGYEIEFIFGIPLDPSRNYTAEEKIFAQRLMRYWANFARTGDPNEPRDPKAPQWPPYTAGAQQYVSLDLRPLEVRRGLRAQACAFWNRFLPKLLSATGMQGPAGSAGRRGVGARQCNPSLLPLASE
T4 sequence (P06276 29-602 D98G): as the sequence (P06276 29-602 D98G) above
T3 sequence (P06276 29-602): as the sequence (P06276 29-602 D98G) above, with G70D counted along it
T1 sequence (P06276 29-602): as the sequence (P06276 29-602 D98G) above, with G70D counted along it
T6 sequence (P06276 29-602): as the sequence (P06276 29-602 D98G) above, with G70D counted along it

Regarding `CC[N+](C)(C)c1cccc(O)c1` [edrophonium], the relief of symptoms entry in data set [1] is “immediate, but brief, relief of the characteristic symptoms”.
With `CCN(CC)C(=O)c1cccc(C)c1` [DEET], in data set [2], the “toxicity of anti-ChEs” value was “amplify the toxicity of anti-ChEs”.
In general, IC50 refers to the concentration needed to halve the response being measured. In the case of `COC(=O)[C@H]1[C@@H](OC(=O)c2ccccc2)C[C@@H]2CC[C@H]1N2C` [cocaine], the IC50 in data set [3] amounted to 300 µM; in data set [4] it was 4.05 ± 0.05 mM; at Rec. BuChE D/D (normal), 280 ± 20 µM; in [5], 5.2 ± 0.3 mM; at Rec. AChE, 3.45 ± 2.15 mM; against Serum BuChE D/D (normal), 320 ± 80 µM.
With `C[n+]1ccccc1C=NO` [PAM, Pyridine-2-aldoxime methiodide], the “k'r × 10^3” value was 14 ± 2 min^-1 with BuChE F^329 C; 12 ± 5 min^-1 in the data set on BuChE D^70 G + Y^114 H; 120 ± 20 min^-1 with BuChE L^286 Q; 8 ± 1 min^-1 with BuChE F^329 D; 43 min^-1 in the data set with BuChE F^329 R; 32 ± 4 min^-1 in the data set on BuChE D^70 G (1 mM PAM, pseudo-first order). Further, the “k'r × 10^3” value in the data set with BuChE L^286 D is reported as 120 ± 30 min^-1; in the data set on BuChE L^286 R it was 6 ± 3 min^-1; in the data set with BuChE D^70 G + S^425 P it was 11 min^-1; with BuChE S^425 P it was 134 ± 8 min^-1; in the data set with BuChE F^329 Q, 44 ± 15 min^-1; in data set [6] (1 mM PAM, pseudo-first order), 4 ± 1 min^-1. Also, the “k'r × 10^3” value worked out at 40 ± 18 min^-1 in data set [7] (1 mM PAM, pseudo-first order); 150 ± 30 min^-1 at DIP-BuChE (1 mM PAM, pseudo-first order); 4 ± 1 min^-1 on BuChE L^286 K (1 mM PAM, pseudo-first order); 6 ± 2 min^-1 at AChE (E6) (1 mM PAM, pseudo-first order); 8 ± 3 min^-1 at AChE (E5) (1 mM PAM, pseudo-first order). Besides, the “reactivation rate lower than wild-type” value with BuChE D^70 G (D^70 G, DFP-inactivated) amounted to 5 fold. The “decrease in the rate of reactivation” value in [6] (all three mutations) is 40 fold. In addition, the “reactivation rate constant lower than native BuChE” value in data set [7] (chimera) was found to be 5 fold. Moreover, the “kr × 10^3” value turned out to be 48 ± 20 min^-1 in [7] (setting [9]); 220 ± 60 min^-1 at DIP-BuChE (setting [9]); 35 ± 27 min^-1 on BuChE L^286 K (setting [9]); 7 ± 3 min^-1 at AChE (E6) (setting [9]); 10 ± 5 min^-1 on AChE (E5) (setting [9]). In addition, the “pseudo-first order reactivation rate constant higher than for either form of AChE” value at DIP-BuChE (DFP-inhibited BuChE) is reported as 25 fold. Besides, the “reduction in the pseudo-first order rate constant for reactivation” value on BuChE L^286 K (L^286 K) is 40 fold. In data set [8], the “rate of reactivation lower than wild type” value is listed as at most 40 fold.
